According to PubChem BioAssay AID330 (DTP/NCI, 2004):
Values joined by “and” are separate entries in the source; they are usually repeats but may differ in a detail not shown here. Identical values can stand only once. Inconclusive results and toxic doses are left out. The calls were made as follows: active = survival T/C of 150% or more; inactive = T/C below 125% in these data.

System: P388 leukemia ip, CD2F1 mice, survival T/C
Assay: NCI In Vivo Anticancer Drug Screen. Data for tumor model P388 Leukemia (intraperitoneal) in CD2F1 (CDF1) mice
Settings: endpoint: median survival time, higher = longer survival
In short: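 Mice carrying the transplanted tumor received test compound or vehicle. Survival was recorded in each group, and the value is the treated-group measurement divided by that of the vehicle-treated control group.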

[1] = dose: 50.0 mg/kg/injection, schedule: Q01DX005 (ip), vehicle: saline with Tween-80
[2] = dose: 100.0 mg/kg/injection, schedule: Q01DX005 (ip), vehicle: saline with Tween-80
[3] = dose: 200.0 mg/kg/injection, schedule: Q01DX005 (ip), vehicle: saline with Tween-80
[4] = dose: 6.25 mg/kg/injection, schedule: Q01DX009 (ip), vehicle: Klucel (hydroxypropylcellulose) (HPC)
[5] = dose: 12.5 mg/kg/injection, schedule: Q01DX009 (ip), vehicle: Klucel (hydroxypropylcellulose) (HPC)
[6] = dose: 25.0 mg/kg/injection, schedule: Q01DX009 (ip), vehicle: Klucel (hydroxypropylcellulose) (HPC)
[7] = dose: 50.0 mg/kg/injection, schedule: Q01DX009 (ip), vehicle: Klucel (hydroxypropylcellulose) (HPC)
[8] = dose: 100.0 mg/kg/injection, schedule: Q01DX009 (ip), vehicle: Klucel (hydroxypropylcellulose) (HPC)
[9] = dose: 50.0 mg/kg/injection, schedule: Q01DX005 (ip), vehicle: Klucel (hydroxypropylcellulose) (HPC)
[10] = dose: 100.0 mg/kg/injection, schedule: Q01DX005 (ip), vehicle: Klucel (hydroxypropylcellulose) (HPC)
[11] = dose: 200.0 mg/kg/injection, schedule: Q01DX005 (ip), vehicle: Klucel (hydroxypropylcellulose) (HPC)
[12] = dose: 200.0 mg/kg/injection, schedule: Q01DX009 (ip), vehicle: Klucel (hydroxypropylcellulose) (HPC)
[13] = dose: 25.0 mg/kg/injection, schedule: Q01DX009 (ip), vehicle: other
[14] = dose: 100.0 mg/kg/injection, schedule: Q01DX009 (ip), vehicle: other
[15] = dose: 200.0 mg/kg/injection, schedule: Q01DX009 (ip), vehicle: other
[16] = dose: 12.5 mg/kg/injection, schedule: Q01DX005 (ip), vehicle: saline with Tween-80
[17] = dose: 25.0 mg/kg/injection, schedule: Q01DX005 (ip), vehicle: saline with Tween-80
[18] = dose: 100.0 mg/kg/injection, schedule: Q04DX003 (ip), vehicle: saline with Tween-80
[19] = dose: 200.0 mg/kg/injection, schedule: Q04DX003 (ip), vehicle: saline with Tween-80

Measured: T/C

CCOC(=O)c1c(-c2ccccc2)nn2c1COC(=O)C2
inactive: [1] 103 % of control | [2] 99 % of control | [3] 98 % of control

NC(=O)CCS(=O)(=O)Cc1ccccc1
inactive: [1] 98 % of control | [2] 95 % of control | [3] 93 % of control

CN(C)N=Nc1cccc(C(N)=O)c1
inactive: [4] 100 % of control | [5] 110 % of control | [6] 116 % of control | [7] 112 % of control | [8] 93 % of control

COCC(=O)c1ccc([N+](=O)[O-])cc1
inactive: dose: 50.0 mg/kg/injection, schedule: Q01DX009 (ip), vehicle: saline 98 % of control | dose: 100.0 mg/kg/injection, schedule: Q01DX009 (ip), vehicle: saline 103 % of control and 104 % of control | dose: 200.0 mg/kg/injection, schedule: Q01DX009 (ip), vehicle: saline 105 % of control and 111 % of control

N#CCc1nc2ncc(Br)cc2[nH]1
inactive: dose: 100.0 mg/kg/injection, schedule: Q01DX001 (ip), vehicle: saline with Tween-80 100 % of control | dose: 200.0 mg/kg/injection, schedule: Q01DX001 (ip), vehicle: saline with Tween-80 104 % of control | dose: 400.0 mg/kg/injection, schedule: Q01DX001 (ip), vehicle: saline with Tween-80 100 % of control

CC(=O)OCC1OC(N(O)Cc2ccccc2)C(OC(C)=O)C(OC(C)=O)C1OC(C)=O (stereo not drawn)
inactive: [9] 100 % of control | [10] 95 % of control | [11] 86 % of control

O=S(=O)(NCCSSCCNS(=O)(=O)c1ccc(Cl)cc1)c1ccc(Cl)cc1
inactive: [7] 92 % of control | [8] 91 % of control | [12] 88 % of control

O=c1c2cc3c(cc2c2cc([N+](=O)[O-])cc4c2n1CC4)OCO3
inactive: [13] 98 % of control | dose: 50.0 mg/kg/injection, schedule: Q01DX009 (ip), vehicle: other 92 % of control | [14] 90 % of control | [15] 100 % of control | dose: 400.0 mg/kg/injection, schedule: Q01DX009 (ip), vehicle: other 104 % of control

Cc1cn(CCCCCCOc2c3occc3cc3ccc(=O)oc23)c(=O)[nH]c1=O
inactive: [9] 92 % of control | dose: 50.0 mg/kg/injection, schedule: Q04DX002 (ip), vehicle: Klucel (hydroxypropylcellulose) (HPC) 98 % of control | dose: 100.0 mg/kg/injection, schedule: Q04DX002 (ip), vehicle: Klucel (hydroxypropylcellulose) (HPC) 104 % of control | [11] 88 % of control | dose: 200.0 mg/kg/injection, schedule: Q04DX002 (ip), vehicle: Klucel (hydroxypropylcellulose) (HPC) 96 % of control

CC(=O)OC1CC(O)CC2=CCC3C4CCC(C(C)(O)C(O)CC5COC(=O)C5C)C4(C)CCC3C21C (stereo not drawn)
inactive: dose: 4.0 mg/kg/injection, schedule: Q01DX005 (ip), vehicle: distilled water + Tween-80 96 % of control | dose: 8.0 mg/kg/injection, schedule: Q01DX005 (ip), vehicle: distilled water + Tween-80 95 % of control | dose: 16.0 mg/kg/injection, schedule: Q01DX005 (ip), vehicle: distilled water + Tween-80 96 % of control | dose: 32.0 mg/kg/injection, schedule: Q01DX005 (ip), vehicle: distilled water + Tween-80 91 % of control and 97 % of control | dose: 64.0 mg/kg/injection, schedule: Q01DX005 (ip), vehicle: distilled water + Tween-80 87 % of control and 94 % of control

CCO/C=C1/N=C(Cc2ccc(Br)cc2)OC1=O
inactive: dose: 60.0 mg/kg/injection, schedule: Q01DX005 (ip), vehicle: saline with Tween-80 94 % of control | dose: 120.0 mg/kg/injection, schedule: Q01DX005 (ip), vehicle: saline with Tween-80 90 % of control

O=C1c2ccccc2C(=O)N1CC#CC[N+]1([O-])CCc2ccccc2C1 (stereo not drawn)
inactive: dose: 12.5 mg/kg/injection, schedule: Q01DX005 (ip), vehicle: Klucel (hydroxypropylcellulose) (HPC) 103 % of control | dose: 25.0 mg/kg/injection, schedule: Q01DX005 (ip), vehicle: Klucel (hydroxypropylcellulose) (HPC) 102 % of control | [9] 103 % of control | [10] 110 % of control

CC1c2ccccc2OS(=O)N1C (stereo not drawn)
inactive: [7] 104 % of control | [8] 110 % of control | [12] 111 % of control

O=C(NN1C(=O)CS(=O)(=O)C1c1ccccc1F)c1ccncc1 (stereo not drawn)
inactive: dose: 6.25 mg/kg/injection, schedule: Q01DX005 (ip), vehicle: saline with Tween-80 102 % of control | [16] 98 % of control | [17] 99 % of control | [1] 97 % of control | [2] 90 % of control | [3] 97 % of control

COC(=O)C1=C(N)N2C/C(=C/c3cccs3)SC2=C(C(=O)OC)C1c1cccs1 (stereo not drawn)
inactive: [16] 96 % of control | [17] 91 % of control | [1] 86 % of control and 91 % of control

CCn1c(=O)c2[nH]c(I)nc2n(CC)c1=O
inactive: [6] 99 % of control | [7] 99 % of control | [8] 106 % of control

CCOc1ccc2c(c1)c(C)cc(C)[n+]2CC
inactive: dose: 6.25 mg/kg/injection, schedule: Q04DX003 (ip), vehicle: saline with Tween-80 97 % of control | dose: 12.5 mg/kg/injection, schedule: Q04DX003 (ip), vehicle: saline with Tween-80 99 % of control

CCOC(=O)/C=C(\I)C(=O)OCC
inactive: [4] 109 % of control | [5] 100 % of control | [6] 98 % of control

O=C1OC2(c3ccccc31)c1cc(I)c(O)c(I)c1Oc1c2cc(I)c(O)c1I
inactive: [18] 91 % of control | [19] 95 % of control

CC(C)(C)C(=O)CC(=O)C(C)(C)C.CC(C)(C)C(=O)CC(=O)C(C)(C)C.[Cu]
inactive: dose: 4.75 mg/kg/injection, schedule: Q01DX009 (ip), vehicle: saline with Tween-80 104 % of control | dose: 9.5 mg/kg/injection, schedule: Q01DX009 (ip), vehicle: saline with Tween-80 95 % of control | dose: 19.0 mg/kg/injection, schedule: Q01DX009 (ip), vehicle: saline with Tween-80 95 % of control

COc1ccc2c(c1)CCC1=C2C=C[P+]1(C)C
inactive: dose: 50.0 mg/kg/injection, schedule: Q01DX009 (ip), vehicle: saline with Tween-80 94 % of control

CCOC(=O)/C=C1/SC(N2CCCCC2)C(=O)N1CC (stereo not drawn)
inactive: [7] 106 % of control | [8] 110 % of control | [12] 110 % of control

CC(=O)OC1OC(COS(=O)(=O)c2ccc(C)cc2)C(OC(C)=O)C(OC(C)=O)C1OC(C)=O (stereo not drawn)
inactive: dose: 12.5 mg/kg/injection, schedule: Q01DX009 (ip), vehicle: other 93 % of control | [13] 90 % of control | [14] 87 % of control | [15] 92 % of control

COc1ccc(/C=C/c2ccc3ccccc3n2)c(OC)c1
inactive: dose: 100.0 mg/kg/injection, schedule: Q01DX009 (ip), vehicle: saline with Tween-80 100 % of control | dose: 200.0 mg/kg/injection, schedule: Q01DX009 (ip), vehicle: saline with Tween-80 100 % of control | dose: 400.0 mg/kg/injection, schedule: Q01DX009 (ip), vehicle: saline with Tween-80 100 % of control

N#Cc1nn(C(N)=O)c(N)c1C#N
inactive: dose: 60.0 mg/kg/injection, schedule: Q01DX005 (ip), vehicle: Klucel (hydroxypropylcellulose) (HPC) 104 % of control | dose: 120.0 mg/kg/injection, schedule: Q01DX005 (ip), vehicle: Klucel (hydroxypropylcellulose) (HPC) 105 % of control | dose: 240.0 mg/kg/injection, schedule: Q01DX005 (ip), vehicle: Klucel (hydroxypropylcellulose) (HPC) 103 % of control

O=P(c1ccccc1)(c1ccccc1)c1ccccc1.O=P(c1ccccc1)(c1ccccc1)c1ccccc1.O=P(c1ccccc1)(c1ccccc1)c1ccccc1.O=P(c1ccccc1)(c1ccccc1)c1ccccc1.[Fe+3].[O-][Cl+3]([O-])([O-])O
inactive: [18] 97 % of control | [19] 93 % of control

O=C(O)C(Cc1c[nH]c2ccccc12)C(=O)NO (stereo not drawn)
inactive: dose: 60.0 mg/kg/injection, schedule: Q01DX005 (ip), vehicle: saline 97 % of control | dose: 120.0 mg/kg/injection, schedule: Q01DX005 (ip), vehicle: saline 97 % of control | dose: 240.0 mg/kg/injection, schedule: Q01DX005 (ip), vehicle: saline 94 % of control
